Measurements: ChEMBL document CHEMBL1671849, “Novel, Broad Spectrum Anti-Cancer Agents Containing the Tricyclic 5:7:5-Fused Diimidazodiazepine Ring System” (ACS Med Chem Lett, 2011)

Legend:
A549 = assay: Cytotoxicity against human A549 cells after 72 hrs by WST1 assay; assay type: functional, cell-based; conditions: A549, 72 h
MCF7 [1] = assay: Cytotoxicity against human MCF7 cells after 72 hrs by WST1 assay; assay type: functional, cell-based; conditions: MCF7, 72 h
OVCAR-3 = assay: Cytotoxicity against human OVCAR3 cells after 72 hrs by WST1 assay; assay type: functional, cell-based; conditions: OVCAR-3, 72 h
MDA-MB-231 = assay: Cytotoxicity against human MDA-MB-231 cells after 72 hrs by WST1 assay; assay type: functional, cell-based; conditions: MDA-MB-231, 72 h
PC-3 = assay: Cytotoxicity against human PC3 cells after 72 hrs by WST1 assay; assay type: functional, cell-based; conditions: PC-3, 72 h
NCI-H460 = assay: Cytotoxicity against human H460 cells after 72 hrs by WST1 assay; assay type: functional, cell-based; conditions: NCI-H460, 72 h
MCF7 [2] = assay: Cell cycle arrest in human MCF7 cells assessed as accumulation at G1 phase at 3 uM after 24 hrs by flow cytometry relative to control; assay type: functional
Mus musculus [3] = assay: Toxicity in SCID mouse assessed as histopathological examination of spleen at up to 500 mg/kg administered twice week for 7 weeks; assay type: organism-based; set-up: dose 500 mg/kg; conditions: in vivo, 1176 h
Mus musculus [4] = assay: Toxicity in SCID mouse assessed as histopathological examination of liver at up to 500 mg/kg administered twice week for 7 weeks; assay type: organism-based; set-up: dose 500 mg/kg; conditions: in vivo, 1176 h
MCF7 [5] = assay: Cell cycle arrest in human MCF7 cells assessed as accumulation at S phase at 3 uM after 24 hrs by flow cytometry relative to control; assay type: functional
Mus musculus [6] = assay: Toxicity in SCID mouse assessed as histopathological examination of kidney at up to 500 mg/kg administered twice week for 7 weeks; assay type: organism-based; set-up: dose 500 mg/kg; conditions: in vivo, 1176 h
Mus musculus [7] = assay: Toxicity in SCID mouse at up to 500 mg/kg administered twice week for 7 weeks; assay type: organism-based; set-up: dose 500 mg/kg; conditions: in vivo, 1176 h
Mus musculus [8] = assay: Toxicity in SCID mouse assessed as histopathological examination of cerebellum-brain at up to 500 mg/kg administered twice week for 7 weeks; assay type: organism-based; set-up: dose 500 mg/kg; conditions: in vivo, 1176 h
MCF7 [9] = assay: Cell cycle arrest in human MCF7 cells assessed as accumulation at G2/M phase at 3 uM after 24 hrs by flow cytometry relative to control; assay type: functional
Mus musculus [10] = assay: Toxicity in SCID mouse assessed as blood analysis at up to 500 mg/kg administered twice week for 7 weeks; assay type: organism-based; set-up: dose 500 mg/kg; conditions: in vivo, 1176 h

Structure (SMILES)	IC50 (A549) [µM]	IC50 (MCF7 [1]) [µM]	IC50 (OVCAR-3) [µM]	IC50 (MDA-MB-231) [µM]	IC50 (PC-3) [µM]	IC50 (NCI-H460) [µM]	Activity (MCF7 [2]) [%]	Activity (Mus musculus [3])	Activity (Mus musculus [4])	Activity (MCF7 [5]) [%]	Activity (Mus musculus [6])	Activity (Mus musculus [7])	Activity (Mus musculus [8])	Activity (MCF7 [9]) [%]	Activity (Mus musculus [10])
COc1ccc(Cn2cnc3c4nc(=O)n(Cc5cccc(OC)c5)c-4ncnc32)cc1	1.5	6	5.1	2.6	2.5	1.6	–	–	–	–	–	–	–	–	–
COc1ccc(Cn2c3nc(-c4ccc([N+](=O)[O-])cc4)nc4c(ncn4Cc4ccc(OC)cc4)c-3nc2=O)cc1	2.7	5.7	5.2	3.3	4.3	2.5	–	–	–	–	–	–	–	–	–
COc1ccc(Cn2c3ncnc4c(ncn4Cc4ccc(OC)cc4)c-3nc2=O)cc1	2.5	7.5	14.5	4.01	4.8	2.8	79.15	Non-toxic	Non-toxic	5.87	Non-toxic	Non-toxic	Non-toxic	14.5	Non-toxic
COc1ccc(Cn2cnc3c4nc(=O)n(Cc5ccccc5)c-4ncnc32)cc1	1.7	7	5	2.3	4.05	1.8	–	–	–	–	–	–	–	–	–
COc1ccc(Cn2cnc3c4nc(=O)n(Cc5ccc(F)cc5)c-4ncnc32)cc1	1.6	4	9	2.5	2.1	1.5	–	–	–	–	–	–	–	–	–
